Patent publication US20030176316A1, “Methods for treatment of rheumatoid arthritis” (priority 2001, published 2003)
Counter-ions that a name gives are not always drawn. Like-named read-outs stand apart in the source and are kept apart here. Values belong to the compound of their own block, whether it stands above or below them.

Experiments:
[1] = biological target: T1, GST-cGB-PDE5 fusion protein (cGMP binding sites of human PDE5A) (Homo sapiens, UniProt O76074); experiment: cGMP binding assay with GST-cGB-PDE5 fusion protein
T1 construct: made in house; host or cells: E. coli BL21 (DE3)
Description: RT-PCR method is used to obtain the cGB domain of PDE5 with forward and reverse primers designed from bovine PDE5A cDNA sequence (McAllister-Lucas L. M. et al., J Biol. Chem. 268, 22863-22873, 1993) and the selection among PDE 1-10 families. 5′-3′, Inc. kits for total RNA followed by oligo (dT) column purification of mRNA are used with HT-29 cells. […] It is then cloned into pGEX-5×-3 glutathione-S-transferase (GST) fusion vector (Pharmacia Biotech )with tac promoter, and EcoRI and XhoI cut sites. The fusion vector is then transfected into E. Coli BL21 (DE3) bacteria (Invitrogen). The transfected BL21 bacteria is grown to log phase, and then IPTG is added as an induce. The induction is carried at 20° C. for 24 hrs. The bacteria are harvested and lysed. The soluble cell lysate is incubated with GSH conjugated Sepharose 4B (GSH-Sepharose 4B). The GST-cGB-PDE5 fusion protein can bind to the GSH-Sepharose beads, and the other proteins are washed off from beads with excessive cold PBS.
Then, the mixture is transferred to Brandel MB-24 cell harvester with GF/B as the filter membrane followed by 2 washes with 10 mL of cold 5 mM potassium buffer(pH 6.8). The membranes are then cut out and transferred to scintillation, vials followed by the addition of 1 mL of H2O and 6 mL of Ready Safe™ liquid scintillation cocktail to each vial. The vials are counted on a Beckman LS 6500 scintillation counter.
The quenching by filter membrane or other debris are also calibrated.

PDE 5 = PDE 5 (Homo sapiens, UniProt O76074); experiment: competitive (with cGMP) binding to PDE5
[2] = seven-day dose-range finding study in rats; assay type: in vivo; settings: seven days, 2000 mg/kg/day
28-day study in rats = assay type: in vivo; settings: 28 days, 50 and 500 mg/kg/day
Procedure: A 28-day study in rats was also carried out at 0, 50, 500 and 2000 mg/kg/day.

[3] = long-term safety assessment study in rats, 91 days; assay type: in vivo
Description: These changes were not associated with any gross clinical abnormality.

[4] = 91-day oral study in dogs; assay type: in vivo; settings: 91 days, highest dose group
U937 cells = experiment: apoptosis induction of U937 cells (active caspase 3, indirect immunofluorescence); assay type: cell-based; settings: 24 hours
Procedure: U937 cells (from ATCC Rockville, Md.) were grown in RPMI media supplemented with 5% FCS, glutamine, antibiotic/antimycotic and sodium pyruvate. Total RNA was isolated from two U937 cultures, one treated with 5nM TPA for 48 hours and one grown in normal media as listed above, using the Rouche High Pure RNA Isolation Kit (cat# 1 828 665) as per manufacturers protocol. cDNA was then synthesized from the total RNA using GibcoBRL Superscriptll (Cat# 18064-022) reverse transcriptase as per manufacturers protocol. The resulting cDNA was used as a template for RT-PCR reactions using primer sets specific for PDE2 (forward: […], reverse: […]) or PDE5 (forward: […], reverse: […]). mRNA for PDE2 and 5 were both present in the untreated U937 cells. Upon treatment with TPA, the relative amounts of PDE2 mRNA increased 5 fold. Therefore, U937 cells treated with TPA and driven to differentiate into an activated macrophage like state have elevated levels of PDE2 mRNA (see FIG. 1).
The presence of PDE2 and PDE5 protein within U937 cells was confirmed by indirect immunofluorescence (IIF). U937 cells were cultured as above. Two U937 cultures, one grown in the presence of 5 nM TPA for 48 hours and one grown in normal media were processed. All cultures were collected by centrifugation (Shandon Cytospin, 2 minutes @ 600 rpm) onto poly-L lysine-coated slides and immediately fixed in fresh 3% paraformaldehyde buffered in PBS for 10 minutes. Adherent cultures were grown on coverslips and fixed as above. Cells were permeablized in 0.2% triton-100 for 2 minutes. Slides were blocked with blocking buffer (5% goat serum, 5% glycerol, 1% gelatin from cold water fish skin and 0.04% NaN3 in PBS) for 1 hour at room temperature.
Slides were then incubated for 1 hour at 37° C. in a humid chamber with antibodies specific for PDE2 (generated in a sheep against the peptide […]) or PDE5 (generated in sheep against the peptide […]). […]
The level of apoptosis in U937 cells was quantified by scoring 500 consecutive cells for the presence of active caspase 3. […]

competition with cGMP in binding to the cGMP binding sites of GST-cGB-PDE5 ([1]; 3H-cGMP 2 μM, 22° C., 1 hour): did not compete with cGMP in binding
SMILES: CCCCOC1C2OP(=O)(O)OCC2OC1n1cnc2c(N)ncnc21 (centres unmarked) [2′-O-butyl-cAMP]

competition with cGMP in binding to the cGMP binding sites of GST-cGB-PDE5 ([1]; 3H-cGMP 2 μM, 22° C., 1 hour): did not compete with cGMP in binding
SMILES: CCCCOC1C2OP(=O)(O)OCC2OC1n1cnc2c(=O)[nH]c(N)nc21 (centres unmarked) [2′-O-butyl-cGMP]

SMILES: Nc1ncnc2c1ncn2[C@@H]1O[C@@H]2COP(=O)(O)O[C@H]2[C@H]1O [Cyclic AMP]
competition with cGMP in binding to the cGMP binding sites of GST-cGB-PDE5 [1]: did not compete with cGMP in binding

liver and thyroid weight increases at the lower doses (28-day study in rats): not statistically significant
microscopic alterations of the liver [4]: no microscopic alterations
SMILES: CC1=C(CC(=O)NCc2ccccc2)c2cc(F)ccc2/C1=C\c1ccncc1 [Example 38, (Z)-5-Fluoro-2-Methyl-(4-Pyridylidene)-3-(N-Benzyl) Indenylacetamide Hydrochloride]
competitive (with cGMP) binding to PDE 5 (PDE 5): does competitively (with cGMP) bind to PDE 5
effects [2]: labored breathing and/or abnormal respiratory sounds, decreased weights gains and food consumption ion male rats, and increased liver weights in female rats
clinical biochemistry and hematology [3]: no changes in clinical biochemistry and hematology were evident
competition with cGMP in binding to the cGMP binding sites of GST-cGB-PDE5 ([1]; 3H-cGMP 2 μM, 22° C., 1 hour): does not bind to the cGMP-binding site of PDE5
apoptosis, fluorescent image of active caspase 3 (FIG. 8) (U937 cells; 1 μM): undergoing apoptosis as reflected by the presence of active caspase 3

competition with cGMP in binding to the cGMP binding sites of GST-cGB-PDE5 ([1]; 3H-cGMP 2 μM, 22° C., 1 hour): did not compete with cGMP in binding
SMILES: Nc1ccn([C@@H]2O[C@@H]3COP(=O)(O)O[C@H]3[C@H]2O)c(=O)n1 [cCMP, cyclic CMP]

competition with cGMP in binding to the cGMP binding sites of GST-cGB-PDE5 ([1]; 3H-cGMP 2 μM, 22° C., 1 hour): did not compete with cGMP in binding
SMILES: O=c1ccn([C@@H]2O[C@@H]3COP(=O)(O)O[C@H]3[C@H]2O)c(=O)[nH]1 [cUMP, cyclic UMP]

SMILES: COc1ccc(C2CNC(=O)C2)cc1OC1CCCC1 (centres unmarked) [rolipram]
levels of apoptosis (active caspase 3) (U937 cells; 0.5 μM): No increase in the levels of apoptosis compared to normal background

SMILES: CCCc1nn(C)c2c(=O)[nH]c(-c3cc(S(=O)(=O)N4CCN(C)CC4)ccc3OCC)nc12 [sildenafil]
levels of apoptosis (active caspase 3) (U937 cells; 0.3 nM): No increase in the levels of apoptosis compared to normal background
